{"source": "patent US10918687B2", "about": "“Kava derived therapeutic compounds and methods of use thereof” (KUALITY HERBCEUTICS LLC, priority 2013, dated 2021)", "key": {"[1]": {"system": "NNK-induced DNA adducts in lung tissues", "assay": "NNK-induced DNA adducts in A/J mouse lung tissues (LC-ESI-MS/MS)", "type": "in vivo, A/J mice", "conditions": "24 h after NNK; for minimum chemopreventive (effective) dose estimated from DNA adduct reduction: dose-response of O^6-mG reduction in lung", "from_the_text": "DNA was isolated from the whole lung tissue of each individual mouse following Puregene DNA isolation protocol (Qiagen Corp, Valencia, Calif.) (Urban et al., Chem Res Toxicol 2012; 25:2167-78). 7-pobG, O^2-pobdT, O^6-pobdG, and O^6-mG were quantified by LC-ESI-MS/MS, following established protocols (Urban et al., Chem Res Toxicol 2012; 25:2167-78; Peterson et al., Cancer Res 1991; 51:5557-64).\nAfter one-week acclimation, A/J mice were weighed and randomized into seven groups (3 mice per group) and switched to the AIN-93 G diet on a date defined as Day 1. Mice in Groups 1 and 2 were given the AIN-93 G diet during Day 1-Day 7. Mice in Groups 3-7 were given the AIN-93 G diet supplemented with desmethoxyyangonin, (+)-DHK, (+)-kavain, (+)-DHM, or (+)-methysticin respectively, at a dose of 1 mg/g of diet during Day 1-Day 7. Mice in Groups 2-7 were given a single dose of NNK at 100 mg/kg bodyweight in saline (0.1 ml) via intraperitoneal (i.p.) injection at the beginning of Day 7 while mice in Group 1 were given saline (0.1 ml). Mice were euthanized by CO2 overdosing 24 h after NNK treatment, and lung tissues were collected and stored at −80° C. until DNA isolation. A number of NNK-induced DNA modifications (O^6-mG, 7-pobG, O^6-pobdG and O^2-pobdT) were quantified by following a reported procedure (Leitzman, P et al. (2014) Cancer. Prev. Res., 7: 86-96).\n(§1) After one-week acclimation, A/J mice were weighed and randomized into ten groups (3 mice per group except for Group 1 that had one mouse as the negative control) and switched to the AIN-93 G diet on a date defined as Day 1. Mice in Groups 1 and 2 were given the AIN-93 G diet during Day 1-Day 7. Mice in Groups 3-10 were given the AIN-93 G diets supplemented with kava, (+)-DHK, (+)-DHM, and synthetic (±)-DHM respectively at the specified dose during Day 1-Day 7. Mice in Groups 2-10 were given a single dose of NNK at 100 mg/kg bodyweight in saline (0.1 ml) via i.p. injection at the beginning of Day 7 while the mouse in Group 1 was given saline (0.1 ml). Mice were euthanized by CO2 overdosing 24 h after NNK treatment, and lung and liver tissues were collected and stored at −80° C. until DNA isolation. A set of NNK-induced DNA adducts (O^6-mG, 7-mG, 7-pobG, O^6-pobdG, O^2-pobdT, 7-phbG, O^6-phbdG and O^2-phbdT) were quantified by following reported procedures (Leitzman, P et al. (2014) Cancer. Prev. Res., 7: 86-96; Peterson, L A et al. (2013) Chem. Res. Toxicol. 26: 1464-1473; Upadhyaya, P et al. (2008) Chem. Res. Toxicol. 21: 1468-1476). For 7-mG isolation, DNA (30 μg) was dissolved in 10 mM sodium phosphate buffer, pH 7 (500 μL) and spiked with [^13C1^2H3]7-mG (10 pmol). Samples were heated to 80° C. for 30 minutes. An aliquot (100 μL) was removed for 7-mG analysis."}, "[2]": {"system": "NNK-induced DNA damage in liver tissues", "assay": "NNK-induced DNA damage in A/J mouse liver tissues", "type": "in vivo, A/J mice", "conditions": "diet Day 1-Day 7, 24 h after NNK; data not shown", "procedure": "DNA was isolated and purified from ˜100 mg lung and liver tissues of each mouse, following Genomic-tip 100/G protocol from Qiagen Corp (Valencia, Calif.).\nas §1"}, "[3]": {"system": "PhIP-induced DNA damage in hepe1c1c7 cells", "assay": "PhIP-induced DNA damage in hepe1c1c7 cells", "type": "cell-based, rodent", "conditions": "1, 5 and 25 μM co-treated with PhIP (10 μM) for 24 hours", "from_the_text": "(§2) The goal of this study was to explore the potential scope of dihydromethysticin in blocking/reducing different carcinogen-induced DNA damage and detoxifying such carcinogens. […] Benzo(a)pyrene (BaP) is a representative polyaromatic hydrocarbon-based carcinogen in cigarette smoke and is present in various industrial/motor exhaust/waste. BaP is a human carcinogen to lung, stomach and other tissues. A rodent liver cancer cell line was used in these studies. Briefly, the hepe1c1c7 cells were co-treated with dihydromethysticin (1, 5, and 25 μM) and PhIP (10 μM) for 24 hours with DNA isolated and PhIP-based DNA damage quantified (FIG. 28A). […] Similarly the cells were co-treated with dihydromethysticin (1, 5, and 25 μM) and BaP (0.3 μM) for 3 hours with DNA isolated and BaP-based DNA damage quantified (FIG. 28B)."}, "[4]": {"system": "BaP-induced DNA damage in hepe1c1c7 cells", "assay": "BaP-induced DNA damage in hepe1c1c7 cells", "type": "cell-based, rodent", "conditions": "1, 5 and 25 μM co-treated with BaP (0.3 μM) for 3 hours", "from_the_text": "as §2"}, "[5]": {"system": "APAP-induced hepatotoxicity", "assay": "Short-term combination study: potentiation of APAP-induced hepatotoxicity in C57BL/6 mice", "conditions": "3-day daily gavage, DHM 37.5 mg/kg, FKB 11.5 mg/kg", "description": "Six week-old female C57BL/6J mice (Jackson Laboratories, ME) were housed at specific pathogen-free animal facilities of Research Animal Resources, University of Minnesota with free access to standard rodent food and water. All mice were acclimatized for one week before being used for experiments. Mice were gavaged with dose formulations at the indicated doses and times, euthanized by CO2 overdosing with necropsy performed by experienced researchers.\nThe short-term combination studies were designed to evaluate the potential synergism of kava and its chemicals to APAP induced hepatotoxicity. C57BL/6 mice were randomized (8-15 mice per group) and were administered with PEG-400 (200 μL), kava (500 mg/kg bodyweight), DHM or FKA and FKB in PEG-400 (200 μL) at the indicated doses daily via oral gavage for two days. On the third day, mice in the respective groups were co-administered with APAP (800 mg/kg bodyweight) in PEG-400 (200 μL). Bodyweight was recorded daily. Necropsies were performed 24 hours after the last gavage by experienced researchers. Serum from each mouse was analyzed for ALT and AST. Livers were collected and preserved in 10% neutral buffered formalin. Appropriately fixed tissues were processed into paraffin blocks using standard histological techniques, and 5 μm sections were cut and stained with hematoxylin and eosin (H&E).\nThe clinical chemistry data were reported as mean±SD (n=4-15). […] One-way analysis of variance (ANOVA) was used to compare the means among different groups in the short-term combination studies. Dunnett's test was used for comparisons of APAP and other treatment groups when the one-way ANOVA analysis was statistically significant. p-value≤0.05 was considered statistically significant. All analyses were conducted in GraphPad Prism 4 (GraphPad Software, Inc. La Jolla, Calif.)."}, "[6]": {"system": "human lung H2009 cancer cell line tumors", "assay": "H2009 human lung cancer xenograft in nude mice", "type": "in vivo", "conditions": "40 mg/kg bodyweight via i.p. injection or oral gavage", "procedure": "Typically human origin lung cancer cells were cultured and mixed with Metrigel. 2-5×10^6 cells were inoculated in the nude mice. Mice were randomized into different groups when the tumor size reached ˜50 mm^3. Treated mice received drug candidate at a dose of 40 mg/kg bodyweight via i.p. injection or oral gavage. The tumor size was monitored once or twice a week until 5 weeks since the treatment or when the size of the tumors >1000 mm^3. Mouse bodyweight was monitored once a week. Mice were CO^2 euthanized and the tumors were collected and weighed. Major organs were grossly examined and weighed as well."}, "[7]": {"conditions": "1, 0.25, 0.1 and 0.01 mg/g of diet"}, "[8]": {"conditions": "kava 5 and 1.25 mg/g, (+)-DHM 1, 0.25, 0.1 and 0.01 mg/g of diet"}}, "data": [{"smiles": "COC1=CC(=O)O[C@@H](CCc2ccc3c(c2)OCO3)C1", "note": "[(+)-DHM, (+)-dihydromethysticin]", "values": [{"measurement": "effect on O^6-mG", "setting": "[1]; 0.01 mg/g of diet", "result": "no effect"}, {"measurement": "extent of reduction in O^6-mG", "setting": "[1]; 0.1 mg/g of diet", "result": "comparable to that induced by kava at a dose of 1.25 mg/g of diet"}, {"measurement": "effect on 7-mG", "setting": "[1]; [7]", "result": "dose-dependently reduced"}, {"measurement": "effect on PHB adducts (7-phbG, O^6-phbdG, O^2-phbdT)", "setting": "[1]; [7]", "result": "dose-dependently reduced"}, {"measurement": "minimum chemopreventive (effective) dose estimated from DNA adduct reduction", "setting": "[1]", "result": "0.01-0.1 mg/g of diet"}, {"measurement": "effect on NNK-induced O^6-mG", "setting": "[1]; isolated kavalactones 1 mg/g of diet Day 1-Day 7", "result": "significantly reduced"}, {"measurement": "effect on O^6-mG, dose-response", "setting": "[1]; [8]", "result": "preferentially and dose-dependently reduced"}, {"measurement": "effect on POB adducts, dose-response", "setting": "[1]; [8]", "result": "weaker effects"}, {"measurement": "effect on NNK-induced DNA damage in the liver tissues", "setting": "[2]", "result": "none of the treatments had significant effects"}]}, {"smiles": "COC1=CC(=O)O[C@@H](CCc2ccc3c(c2)OCO3)C1", "note": "[DHM, dihydromethysticin]", "values": [{"measurement": "PhIP-induced DNA damage", "setting": "[3]", "result": "effectively and dose-dependently reduced"}, {"measurement": "BaP-induced DNA damage", "setting": "[4]", "result": "effectively and dose-dependently reduced"}, {"measurement": "serum ALT and AST when combined with APAP, vs APAP alone", "setting": "[5]; APAP 800 mg/kg on third day, FKA and FKB 1, 2, 4 times abundance", "result": "no effect"}, {"measurement": "serum ALT and AST, treatment alone (without APAP)", "setting": "[5]; kava 500 mg/kg, FKA and FKB at 1, 2 and 4 times their abundance in kava 500 mg/kg", "result": "no effect"}, {"measurement": "minimum chemopreventive (effective) dose estimated from DNA adduct reduction", "setting": "[1]", "result": "0.01-0.1 mg/g of diet"}, {"measurement": "tumor volume relative to control group", "setting": "[6]", "result": "significantly reduced"}]}]}
